Columns and labels:
[1] = target: Adrenocorticotropic hormone receptor (Homo sapiens, UniProt Q01718)
Description: Displacement of [[125I]-Tyr23]-ACTH (1-39) from human MC2R incubated for 1.5 hrs by Topcount scintillation counting method

[2] = in vitro; settings: rat, liver microsomes
Description: Stability in rat liver microsomes assessed as half life

[3] = in vitro; settings: human, liver microsomes
Description: Stability in human liver microsomes assessed as half life

[4] = in vivo; settings: rat, po, 10 mg/kg
Description: Half life in rat at 10 mg/kg, po

[5] = in vivo; settings: rat, po, 10 mg/kg; remark: listed apart in the source
Description: AUClast in rat at 10 mg/kg, po

[6] = in vivo; settings: rat, po, 10 mg/kg; remark: listed apart in the source
[7] = in vivo; settings: rat, po, 10 mg/kg; remark: listed apart in the source
[8] = in vivo; settings: rat, po, 10 mg/kg; remark: listed apart in the source
[9] = in vivo; settings: dog, po, 5 mg/kg
Description: AUClast in dog at 5 mg/kg, po

[10] = in vivo; settings: Sprague-Dawley, rat, plasma, po, 3 mg/kg
Description: Drug concentration in Sprague-Dawley rat plasma at 3 mg/kg, po administered as single dose and stimulated with ACTH for 4 hrs measured after 0.5 hrs

[11] = system: MDR1; experiment: in vitro; settings: dog, MDCK-MDR1
Description: Efflux ratio of apparent permeability across basolateral to apical over apical to basolateral in MDCK-MDR1 cells

[12] = in vitro; settings: rat, plasma
Description: Plasma protein binding in rat at 1 uM

[13] = in vivo; settings: dog, iv, 5 mg/kg
Description: Half life in dog at 5 mg/kg, iv

[14] = in vivo; settings: Sprague-Dawley, rat, plasma, po, 30 mg/kg
Description: Drug concentration in Sprague-Dawley rat plasma at 30 mg/kg, po administered as single dose and stimulated with ACTH for 4 hrs measured after 0.5 hrs

[15] = in vivo; settings: dog, iv, 5 mg/kg; remark: listed apart in the source
Description: Clearance in dog at 5 mg/kg, iv

[16] = in vivo; settings: Sprague-Dawley, rat, plasma, po, 3 mg/kg; remark: listed apart in the source
Description: Drug concentration in Sprague-Dawley rat plasma at 3 mg/kg, po administered as single dose and stimulated with ACTH for 1 hr measured after 1.5 hrs

[17] = in vivo; settings: Sprague-Dawley, rat, plasma, po, 30 mg/kg; remark: listed apart in the source
Description: Drug concentration in Sprague-Dawley rat plasma at 30 mg/kg, po administered as single dose and stimulated with ACTH for 1 hr measured after 1.5 hrs

[18] = in vivo; settings: Sprague-Dawley, rat, plasma, po, 30 mg/kg; remark: listed apart in the source
Description: Drug concentration in Sprague-Dawley rat plasma at 30 mg/kg, po administered as single dose and stimulated with ACTH for 1 hr measured after 0.5 hr

[19] = target: Cytochrome P450 2C9 (Homo sapiens, UniProt P11712)
Cytochrome P450 2C9, sequence (P11712 whole entry): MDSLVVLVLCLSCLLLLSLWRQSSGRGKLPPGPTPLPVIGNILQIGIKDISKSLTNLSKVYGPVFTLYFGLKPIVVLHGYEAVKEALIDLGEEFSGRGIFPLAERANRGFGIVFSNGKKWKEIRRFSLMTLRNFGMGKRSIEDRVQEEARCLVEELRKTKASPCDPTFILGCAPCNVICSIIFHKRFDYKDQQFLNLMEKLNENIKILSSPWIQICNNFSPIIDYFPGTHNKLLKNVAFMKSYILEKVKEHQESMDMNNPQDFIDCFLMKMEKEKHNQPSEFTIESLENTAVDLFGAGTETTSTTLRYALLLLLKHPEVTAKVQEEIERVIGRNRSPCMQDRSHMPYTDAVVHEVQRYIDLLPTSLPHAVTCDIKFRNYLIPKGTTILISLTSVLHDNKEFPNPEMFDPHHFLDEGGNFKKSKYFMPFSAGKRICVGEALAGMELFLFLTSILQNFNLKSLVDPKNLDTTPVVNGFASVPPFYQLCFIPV
Description: Inhibition of CYP2C9 (unknown origin)

[20] = target: Melanocyte-stimulating hormone receptor (Homo sapiens, UniProt Q01726)
Melanocyte-stimulating hormone receptor, sequence (Q01726 whole entry): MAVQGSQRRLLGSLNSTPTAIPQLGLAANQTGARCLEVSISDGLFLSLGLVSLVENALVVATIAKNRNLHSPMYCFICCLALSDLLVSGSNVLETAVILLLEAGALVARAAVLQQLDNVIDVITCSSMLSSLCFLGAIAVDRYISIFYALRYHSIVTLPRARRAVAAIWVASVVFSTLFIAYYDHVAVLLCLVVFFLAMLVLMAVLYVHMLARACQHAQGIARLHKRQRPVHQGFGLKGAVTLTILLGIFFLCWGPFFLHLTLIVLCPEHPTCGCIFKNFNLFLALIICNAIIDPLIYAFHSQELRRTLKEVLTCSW

[21] = in vivo; settings: Sprague-Dawley, rat, plasma, po, 3 mg/kg; remark: listed apart in the source
Description: Drug concentration in Sprague-Dawley rat plasma at 3 mg/kg, po administered as single dose and stimulated with ACTH for 1 hr measured after 0.5 hr

[22] = in vivo; settings: Sprague-Dawley, rat, plasma, po, 3 mg/kg; remark: listed apart in the source
Description: Drug concentration in Sprague-Dawley rat plasma at 3 mg/kg, po administered as single dose and stimulated with ACTH for 24 hrs measured after 0.5 hrs

[23] = in vitro; settings: dog, MDCK
Description: Apparent permeability in MDCK cells

[24] = target: 5-hydroxytryptamine receptor 1B (Homo sapiens, UniProt P28222)
5-hydroxytryptamine receptor 1B, sequence (P28222 whole entry): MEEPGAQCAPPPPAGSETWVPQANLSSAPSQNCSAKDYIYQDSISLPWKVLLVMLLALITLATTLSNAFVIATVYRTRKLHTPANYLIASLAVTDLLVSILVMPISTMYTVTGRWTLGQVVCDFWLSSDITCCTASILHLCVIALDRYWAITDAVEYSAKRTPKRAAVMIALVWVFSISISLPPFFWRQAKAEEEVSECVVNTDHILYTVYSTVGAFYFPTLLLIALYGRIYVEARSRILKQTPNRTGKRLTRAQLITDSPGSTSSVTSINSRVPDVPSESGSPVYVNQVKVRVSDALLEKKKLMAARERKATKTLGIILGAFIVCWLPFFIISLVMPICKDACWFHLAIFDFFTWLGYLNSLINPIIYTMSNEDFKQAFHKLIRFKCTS
Description: Antagonist activity at 5-HT1B (unknown origin)

[25] = target: Cytochrome P450 2D6 (Homo sapiens, UniProt P10635)
Cytochrome P450 2D6, sequence (P10635 whole entry): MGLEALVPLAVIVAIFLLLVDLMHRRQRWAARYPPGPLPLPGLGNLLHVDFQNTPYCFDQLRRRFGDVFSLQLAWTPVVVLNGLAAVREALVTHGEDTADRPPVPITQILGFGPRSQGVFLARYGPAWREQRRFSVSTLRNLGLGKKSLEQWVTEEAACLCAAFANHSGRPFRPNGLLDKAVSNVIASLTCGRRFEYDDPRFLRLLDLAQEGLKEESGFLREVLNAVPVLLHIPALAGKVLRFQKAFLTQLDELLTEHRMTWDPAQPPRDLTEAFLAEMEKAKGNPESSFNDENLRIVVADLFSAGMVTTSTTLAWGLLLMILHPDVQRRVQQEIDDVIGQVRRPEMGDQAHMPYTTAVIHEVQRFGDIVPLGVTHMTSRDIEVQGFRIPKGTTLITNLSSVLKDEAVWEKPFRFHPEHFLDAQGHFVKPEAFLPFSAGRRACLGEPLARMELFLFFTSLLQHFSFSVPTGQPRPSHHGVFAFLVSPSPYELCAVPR
Description: Time dependent inhibition of CYP2D6 (unknown origin)

[26] = in vitro; settings: dog, plasma
Description: Plasma protein binding in dog at 1 uM

[27] = target: Cytochrome P450 3A4 (Homo sapiens, UniProt P08684)
Cytochrome P450 3A4, sequence (P08684 whole entry): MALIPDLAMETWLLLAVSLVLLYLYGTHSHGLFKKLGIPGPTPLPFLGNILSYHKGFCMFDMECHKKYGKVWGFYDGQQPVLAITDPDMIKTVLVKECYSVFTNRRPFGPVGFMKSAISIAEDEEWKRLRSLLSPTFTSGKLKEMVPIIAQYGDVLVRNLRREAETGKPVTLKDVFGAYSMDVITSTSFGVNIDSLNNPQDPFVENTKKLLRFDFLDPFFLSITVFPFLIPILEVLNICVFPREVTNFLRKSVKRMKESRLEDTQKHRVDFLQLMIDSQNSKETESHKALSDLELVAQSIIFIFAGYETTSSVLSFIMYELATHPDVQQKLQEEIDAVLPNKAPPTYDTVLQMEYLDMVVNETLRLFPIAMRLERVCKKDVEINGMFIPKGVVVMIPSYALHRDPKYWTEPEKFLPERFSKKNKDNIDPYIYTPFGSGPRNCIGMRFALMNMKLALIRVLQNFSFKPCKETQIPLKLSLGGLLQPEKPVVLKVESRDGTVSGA
Description: Time dependent inhibition of CYP3A4 (unknown origin)

[28] = in vivo; settings: Sprague-Dawley, rat, plasma, po, 30 mg/kg; remark: listed apart in the source
Description: Drug concentration in Sprague-Dawley rat plasma at 30 mg/kg, po administered as single dose and stimulated with ACTH for 24 hrs measured after 1.5 hrs

[29] = in vivo; settings: rat, po, 5 mg/kg
Description: Oral bioavailability in rat at 5 mg/kg

[30] = in vivo; settings: rat, iv, 5 mg/kg
Description: Clearance in rat at 5 mg/kg, iv

[31] = in vivo; settings: rat, iv, 5 mg/kg; remark: listed apart in the source
Description: Volume of distribution at steady state in rat at 5 mg/kg, iv

[32] = in vivo; settings: Sprague-Dawley, rat, plasma, po, 30 mg/kg; remark: listed apart in the source
Description: Drug concentration in Sprague-Dawley rat plasma at 30 mg/kg, po administered as single dose and stimulated with ACTH for 4 hrs measured after 1.5 hrs

[33] = target: Cytochrome P450 2C19 (Homo sapiens, UniProt P33261)
Cytochrome P450 2C19, sequence (P33261 whole entry): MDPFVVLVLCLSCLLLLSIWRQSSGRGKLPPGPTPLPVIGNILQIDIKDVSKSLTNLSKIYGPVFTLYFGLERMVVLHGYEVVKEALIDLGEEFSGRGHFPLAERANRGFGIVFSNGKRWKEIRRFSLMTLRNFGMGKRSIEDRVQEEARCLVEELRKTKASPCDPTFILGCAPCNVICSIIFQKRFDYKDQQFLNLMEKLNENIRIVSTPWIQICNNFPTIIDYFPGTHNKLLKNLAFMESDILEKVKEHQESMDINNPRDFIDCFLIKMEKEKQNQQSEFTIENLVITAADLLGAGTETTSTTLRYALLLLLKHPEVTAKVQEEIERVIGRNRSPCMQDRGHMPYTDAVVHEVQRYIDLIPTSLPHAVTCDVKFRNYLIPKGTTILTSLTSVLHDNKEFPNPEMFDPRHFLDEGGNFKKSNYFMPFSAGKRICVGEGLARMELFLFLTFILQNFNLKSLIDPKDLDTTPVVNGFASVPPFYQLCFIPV
Description: Inhibition of CYP2C19 (unknown origin)

[34] = target: Melanocortin receptor 4 (Homo sapiens, UniProt P32245)
Melanocortin receptor 4, sequence (P32245 whole entry): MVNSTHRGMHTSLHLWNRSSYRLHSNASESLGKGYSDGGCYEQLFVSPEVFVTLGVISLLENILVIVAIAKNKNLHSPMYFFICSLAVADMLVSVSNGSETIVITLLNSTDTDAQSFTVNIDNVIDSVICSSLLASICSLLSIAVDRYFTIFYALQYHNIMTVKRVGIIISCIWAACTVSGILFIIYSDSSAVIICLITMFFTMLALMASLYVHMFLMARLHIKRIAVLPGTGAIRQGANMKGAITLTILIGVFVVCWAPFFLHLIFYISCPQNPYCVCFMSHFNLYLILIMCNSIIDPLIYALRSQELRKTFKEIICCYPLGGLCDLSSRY

[35] = in vivo; settings: rat, po, 5 mg/kg; remark: listed apart in the source
Description: AUClast in rat at 5 mg/kg, po

[36] = target: Melanocortin receptor 5 (Homo sapiens, UniProt P33032)
Melanocortin receptor 5, sequence (P33032 whole entry): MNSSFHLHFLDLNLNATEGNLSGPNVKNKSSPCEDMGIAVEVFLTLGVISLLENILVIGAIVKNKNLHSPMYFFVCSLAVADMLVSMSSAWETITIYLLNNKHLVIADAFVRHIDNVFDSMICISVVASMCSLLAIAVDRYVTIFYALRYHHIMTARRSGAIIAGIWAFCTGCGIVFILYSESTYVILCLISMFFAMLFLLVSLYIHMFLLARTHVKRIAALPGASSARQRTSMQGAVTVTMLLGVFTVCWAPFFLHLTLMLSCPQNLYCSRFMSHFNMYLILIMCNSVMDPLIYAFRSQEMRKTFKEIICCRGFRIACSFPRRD

[37] = in vitro; settings: human, plasma
Description: Plasma protein binding in human at 1 uM

[38] = in vivo; settings: rat, po, 5 mg/kg; remark: listed apart in the source
Description: Cmax in rat at 5 mg/kg, po

[39] = in vivo; settings: dog, po, 5 mg/kg; remark: listed apart in the source
Description: Oral bioavailability in dog at 5 mg/kg

[40] = in vivo; settings: Sprague-Dawley, rat, plasma, po, 3 mg/kg; remark: listed apart in the source
Description: Drug concentration in Sprague-Dawley rat plasma at 3 mg/kg, po administered as single dose and stimulated with ACTH for 4 hrs measured after 1.5 hrs

[41] = in vivo; settings: dog, po, 5 mg/kg; remark: listed apart in the source
Description: Cmax in dog at 5 mg/kg, po

[42] = in vivo; settings: Sprague-Dawley, rat, plasma, po, 30 mg/kg; remark: listed apart in the source
Description: Drug concentration in Sprague-Dawley rat plasma at 30 mg/kg, po administered as single dose and stimulated with ACTH for 24 hrs measured after 0.5 hrs

[43] = in vivo; settings: rat, iv, 5 mg/kg; remark: listed apart in the source
Description: Half life in rat at 5 mg/kg, iv

[44] = in vivo; settings: Sprague-Dawley, rat, plasma, po, 30 mg/kg; remark: listed apart in the source
Description: Drug concentration in Sprague-Dawley rat plasma at 30 mg/kg, po administered as single dose and stimulated with ACTH for 48 hrs measured after 0.5 hrs

[45] = in vivo; settings: dog, iv, 5 mg/kg; remark: listed apart in the source
Description: Volume of distribution at steady state in dog at 5 mg/kg, iv

[46] = target: Melanocortin receptor 3 (Homo sapiens, UniProt P41968)
Melanocortin receptor 3, sequence (P41968 whole entry): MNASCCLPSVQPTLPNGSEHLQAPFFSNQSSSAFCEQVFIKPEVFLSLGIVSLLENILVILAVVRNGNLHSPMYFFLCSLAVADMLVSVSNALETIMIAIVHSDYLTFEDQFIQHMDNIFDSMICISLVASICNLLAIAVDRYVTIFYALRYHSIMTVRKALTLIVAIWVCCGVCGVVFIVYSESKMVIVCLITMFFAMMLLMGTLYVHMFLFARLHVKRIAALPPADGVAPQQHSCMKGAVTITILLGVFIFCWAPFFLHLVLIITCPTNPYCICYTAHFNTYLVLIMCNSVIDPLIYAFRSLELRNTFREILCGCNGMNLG

[47] = target: L-type calcium channel (Homo sapiens, UniProt O60840+Q01668+Q13698+Q13936); experiment: in vitro
Description: Inhibition of L-type calcium channel (unknown origin) at 10 uM relative to control

Adrenocorticotropic hormone receptor, sequence (Q01718 whole entry): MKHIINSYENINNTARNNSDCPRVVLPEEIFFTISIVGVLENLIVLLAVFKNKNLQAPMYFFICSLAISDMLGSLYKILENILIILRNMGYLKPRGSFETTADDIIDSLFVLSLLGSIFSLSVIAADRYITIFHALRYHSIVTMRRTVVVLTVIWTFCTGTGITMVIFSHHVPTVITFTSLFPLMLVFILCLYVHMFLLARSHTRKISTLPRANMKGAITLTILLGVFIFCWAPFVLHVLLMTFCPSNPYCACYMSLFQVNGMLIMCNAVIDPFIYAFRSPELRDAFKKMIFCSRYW

In the case of `CC[C@@H]1CN(C(=O)c2ccc(C(F)(F)F)cc2Cl)CCN1c1ccc(-c2ccccc2F)cc1C(=O)NCCN`, the Ki [1] is reported as 47 nM.
With `CCOc1ncccc1-c1ccc(N2CCN(C(=O)c3ccc(Cl)cc3C(F)(F)F)C[C@H]2CC)c(C(=O)NCCNC)c1` the Ki [1] was 0.96 nM.
In the case of `CCOc1ncccc1-c1ccc(N2CCN(C(=O)c3ccc(Cl)cc3C(F)(F)F)C[C@H]2CC)c(C(=O)NCCN(C)C)c1F`, the Ki [1] is reported as 0.9 nM.
In the case of `CCOc1ncccc1-c1ccc(N2CCN(C(=O)C3(C(F)(F)F)CCC3)C[C@H]2CC)c(C(=O)N[C@@H]2CN3CCC2CC3)n1`, the Ki [1] is reported as 4.4 nM.
`CCOc1ccccc1-c1ccc(N2CCN(C(=O)C3(C(F)(F)F)CCC3)C[C@H]2CC)c(C(=O)N[C@@H]2CCN(C)C2)n1` showed a Ki [1] of 1.3 nM, a half-life [2] of 231 min and a half-life [3] of 116 min.
Molecule `CC[C@@H]1CN(C(=O)c2ccc(C(F)(F)F)cc2Cl)CCN1c1ccc(-c2ccccc2Cl)cc1C(=O)NCCN` has a Ki [1] of 21 nM.
In the case of `CCOc1ncccc1-c1ccc(N2CCN(C(=O)c3ccc(Cl)cc3C(F)(F)F)C[C@H]2CC)c(C(=O)N[C@@H]2CCNC2)n1`, the half-life [4] is reported as 240 min, the Ki [1] is reported as 0.32 nM and the AUC(0-t) [5] is reported as 0.279 µM·h. It also gave a half-life [2] of 347 min and a half-life [3] of 231 min.
With `CCOc1ncccc1-c1ccc(N2CCN(C(=O)c3ccc(Cl)cc3C(F)(F)F)C[C@H]2CC)c(C(=O)NCCN)c1` the Ki [1] was 1.1 nM.
For `CCOc1ccccc1-c1ccc(N2CCN(C(=O)c3ccc(Cl)cc3Cl)C[C@H]2CC)c(C(=O)NCCN)c1`, the AUC(0-t) [6] was 8.1 nM·h, the Ki [1] was 4.8 nM and the Cmax [7] was 2.8 nM.
Molecule `CCOc1ncccc1-c1ccc(N2CCN(C(=O)c3ccc(Cl)cc3C(F)(F)F)C[C@H]2CC)c(C(=O)NCCN(C)C)n1` has a half-life [4] of 96 min, a bioavailability [8] of 8% and a Ki [1] of 0.39 nM. It also gave an AUC(0-t) [5] of 0.349 µM·h, a half-life [2] of 21 min and a half-life [3] of 23 min.
`CCOc1ncccc1-c1ccc(N2CCN(C(=O)c3ccc(Cl)cc3C(F)(F)F)C[C@H]2CC)c(C(=O)N[C@@H]2CCN(C)C2)n1` gave a half-life [4] of 132 min, a bioavailability [8] of 17% and a Ki [1] of 0.3 nM. For the same molecule, the AUC(0-t) [5] was 1.44 µM·h, the half-life [2] was 43 min and the half-life [3] was 35 min.
Work on `CCOc1ncccc1-c1ccc(N2CCN(C(=O)C3(C(F)(F)F)CCCC3)C[C@H]2CC)c(C(=O)N[C@@H]2CCN(C)C2)n1` yielded a Ki [1] of 0.63 nM, a half-life [2] of 231 min and a half-life [3] of 23 min.
In the case of `CC[C@@H]1CN(C(=O)c2ccc(C(F)(F)F)cc2Cl)CCN1c1ccc(-c2ccccc2C#N)cc1C(=O)NCCN`, the Ki [1] is reported as 25 nM.
With `CCOc1ccccc1-c1ccc(N2CCN(C(=O)C3(C(F)(F)F)CCC3)C[C@H]2CC)c(C(=O)N[C@@H]2CN3CCC2CC3)n1` [ATUMELNANT] the AUC(0-t) [9] was 4.97 µM·h, the concentration at 0.5 h [10] was 127 ng/mL and the efflux ratio [11] was 95. The fraction unbound at 1 µM [12] was 0.026, the half-life [13] was 573 min and the concentration at 0.5 h [14] was 1460 ng/mL. The clearance [15] was 14.2 mL/min/kg, the concentration at […] [16] was 93.9 ng/mL and the concentration at […] [17] was 1530 ng/mL. It also gave a concentration at 0.5 h [18] of 1140 ng/mL, an IC50 [19] greater than 10 µM and an IC50 [20] greater than 10 µM. The concentration at 0.5 h [21] was 110 ng/mL, the concentration at 0.5 h [22] was 0.927 ng/mL and the Papp [23] was 1.9 ×10⁻⁶ cm/s. The IC50 [24] was 750 nM, the Ki [1] was 2.1 nM and the IC50 [25] was greater than 10 µM. The fraction unbound at 1 µM [26] was 0.132, the IC50 [27] was greater than 10 µM and the concentration at […] [28] was 14.1 ng/mL. For the same molecule, the bioavailability [29] was 47%, the clearance [30] was 24.5 mL/min/kg and the Vd [31] was 3.19 L/kg. For the same molecule, the concentration at […] [32] was 1260 ng/mL, the IC50 [33] was greater than 10 µM and the IC50 [34] was greater than 10 µM. For the same molecule, the AUC(0-t) [35] was 5.2 µM·h, the IC50 [36] was greater than 10 µM and the fraction unbound at 1 µM [37] was 0.014. For the same molecule, the Cmax [38] was 1220 nM, the bioavailability [39] was 100% and the concentration at […] [40] was 87.5 ng/mL. It also gave a half-life [2] of 231 min, a Cmax [41] of 650 nM and a concentration at 0.5 h [42] of 20 ng/mL. For the same molecule, the half-life [43] was 164 min, the half-life [3] was 231 min and the concentration at 0.5 h [44] was 0.88 ng/mL. The Vd [45] was 10.5 L/kg, the IC50 [46] was greater than 10 µM and the inhibition at 10 µM [47] was greater than 70%.
Molecule `CCOc1ncccc1-c1ccc(N2CCN(C(=O)C34CCC(C(F)(F)F)(CC3)CC4)C[C@H]2CC)c(C(=O)N[C@@H]2CCN(C)C2)n1` has a Ki [1] of 0.4 nM, a half-life [2] of 32 min and a half-life [3] of 69 min.
With `CC[C@@H]1CN(C(=O)c2ccc(C(F)(F)F)cc2Cl)CCN1c1ccc(-c2cccc(F)c2Cl)cc1C(=O)NCCN` the Ki [1] was 36 nM.
Molecule `CCOc1ncccc1-c1ccc(N2CCN(C(=O)c3ccc(Cl)cc3C(F)(F)F)C[C@H]2CC)c(C(=O)NCCN(C)C)c1` has a Ki [1] of 1.5 nM.
Molecule `CCOc1ccccc1-c1ccc(N2CCN(C(=O)c3ccc(Cl)cc3C(F)(F)F)C[C@H]2CC)c(C(=O)NCCN)c1` has a Ki [1] of 1.6 nM.
Molecule `CCOc1ccccc1-c1ccc(N2CCN(C(=O)c3ccc(C(F)(F)F)cc3Cl)C[C@H]2CC)c(C(=O)NCCN)c1` has a Ki [1] of 2 nM.
In the case of `CCOc1ncccc1-c1ccc(N2CCN(C(=O)C3(C(F)(F)F)CCC3)C[C@H]2CC)c(C(=O)N[C@@H]2CCN(C)C2)n1`, the Ki [1] is reported as 3.7 nM, the half-life [2] is reported as greater than 693 min and the half-life [3] is reported as 77 min.

— ChEMBL document CHEMBL5344485, “Discovery of CRN04894: A Novel Potent Selective MC2R Antagonist” (ACS Med Chem Lett, 2024)
